According to ChEMBL document CHEMBL1697723, “A predictive ligand-based Bayesian model for human drug-induced liver injury” (Drug Metab Dispos, 2010):

tested on: Hepatotoxicity; assay: Human drug-induced liver injury (DILI) modelling dataset from Ekins et al; conditions: not given

Row | Compound | Hepatotoxicity
1 | CC(C(=O)O)c1ccc(N2CC=CC2)c(Cl)c1 (stereo not drawn) [PIRPROFEN] | DILI positive (test set)
2 | C[C@]12C=CC(=O)C=C1CC[C@@H]1[C@@H]2C(=O)C[C@@]2(C)[C@H]1CC[C@]2(O)C(=O)CO [PREDNISONE] | DILI negative (training set)
3 | COc1cc(NC(C)CCCN)c2ncccc2c1.O=P(O)(O)O.O=P(O)(O)O (stereo not drawn) [PRIMAQUINE PHOSPHATE] | DILI negative (training set)
4 | CCC1(c2ccccc2)C(=O)NCNC1=O [PRIMIDONE] | DILI negative (training set)
5 | CCCN(CCC)S(=O)(=O)c1ccc(C(=O)O)cc1 [PROBENECID] | DILI negative (test set)
6 | CC(C)(Sc1cc(C(C)(C)C)c(O)c(C(C)(C)C)c1)Sc1cc(C(C)(C)C)c(O)c(C(C)(C)C)c1 [PROBUCOL] | DILI negative (test set)
7 | CNNCc1ccc(C(=O)NC(C)C)cc1.Cl [PROCARBAZINE HYDROCHLORIDE] | DILI positive (training set)
8 | CN1CCN(CCCN2c3ccccc3Sc3ccc(Cl)cc32)CC1.O=C(O)/C=C\C(=O)O.O=C(O)/C=C\C(=O)O [PROCHLORPERAZINE MALEATE] | DILI positive (test set)
9 | CC(=O)[C@H]1CC[C@H]2[C@@H]3CCC4=CC(=O)CC[C@]4(C)[C@H]3CC[C@]12C [PROGESTERONE] | DILI positive (training set)
10 | CN(C)CCCN1c2ccccc2Sc2ccccc21.Cl [PROMAZINE HYDROCHLORIDE] | DILI negative (training set)
11 | CC(CN1c2ccccc2Sc2ccccc21)N(C)C.Cl (stereo not drawn) [PROMETHAZINE HYDROCHLORIDE] | DILI negative (training set)
12 | CC(C)NCC(O)COc1cccc2ccccc12 (stereo not drawn) [PROPRANOLOL] | DILI negative (test set)
13 | CN[C@@H](C)[C@@H](O)c1ccccc1.Cl [PSEUDOEPHEDRINE HYDROCHLORIDE] | DILI negative (training set)
14 | COc1ccc(C[C@H](N)C(=O)N[C@H]2[C@@H](O)[C@H](n3cnc4c(N(C)C)ncnc43)O[C@@H]2CO)cc1 [PUROMYCIN] | DILI positive (training set)
15 | NC(=O)c1cnccn1 [PYRAZINAMIDE] | DILI positive (training set)
16 | CN(C)C(=O)Oc1ccc[n+](C)c1.[Br-] [PYRIDOSTIGMINE BROMIDE] | DILI negative (training set)
17 | CCc1nc(N)nc(N)c1-c1ccc(Cl)cc1 [PYRIMETHAMINE] | DILI positive (training set)
18 | C=C[C@H]1C[N@@]2CC[C@H]1C[C@@H]2[C@@H](O)c1ccnc2ccc(OC)cc12 [QUINIDINE] | DILI positive (training set)
19 | C=C[C@H]1CN2CC[C@H]1C[C@H]2[C@H](O)c1ccnc2ccc(OC)cc12.C=C[C@H]1CN2CC[C@H]1C[C@H]2[C@H](O)c1ccnc2ccc(OC)cc12.O.O.O=S(=O)(O)O [QUININE SULFATE] | DILI positive (test set)
20 | C=C[C@H]1C[N@@]2CC[C@H]1C[C@H]2[C@H](O)c1ccnc2ccc(OC)cc12 [QUININE] | DILI positive (training set)
21 | CCO[C@@H](Cc1ccc(OCCN2c3ccccc3Oc3ccccc32)cc1)C(=O)O [RAGAGLITAZAR] | DILI negative (test set)
22 | O=C(c1ccc(OCCN2CCCCC2)cc1)c1c(-c2ccc(O)cc2)sc2cc(O)ccc12 [RALOXIFENE] | DILI negative (training set)
23 | CNC(=C[N+](=O)[O-])NCCSCc1ccc(CN(C)C)o1 [RANITIDINE] | DILI negative (training set)
24 | NC(=O)c1ncn([C@@H]2O[C@H](CO)[C@@H](O)[C@H]2O)n1 [RIBAVIRIN] | DILI negative (training set)
25 | CO[C@H]1/C=C/O[C@@]2(C)Oc3c(C)c(O)c4c(O)c(c(/C=N/N5CCN(C)CC5)c(O)c4c3C2=O)NC(=O)/C(C)=C\C=C\[C@H](C)[C@H](O)[C@@H](C)[C@@H](O)[C@@H](C)[C@H](OC(C)=O)[C@@H]1C [RIFAMPIN] | DILI negative (test set)
26 | Nc1nc2ccc(OC(F)(F)F)cc2s1 [RILUZOLE] | DILI positive (training set)

Row | Compound | Hepatotoxicity
27 | Cc1nc2n(c(=O)c1CCN1CCC(c3noc4cc(F)ccc34)CC1)CCCC2 [RISPERIDONE] | DILI positive (training set)
28 | CC(C)c1nc(CN(C)C(=O)N[C@H](C(=O)N[C@@H](Cc2ccccc2)C[C@H](O)[C@H](Cc2ccccc2)NC(=O)OCc2cncs2)C(C)C)cs1 [RITONAVIR] | DILI positive (test set)
29 | CN(CCOc1ccc(CC2SC(=O)NC2=O)cc1)c1ccccn1 (stereo not drawn) [ROSIGLITAZONE] | DILI negative (test set)
30 | C=C(C)[C@H]1Cc2c(ccc3c2O[C@@H]2COc4cc(OC)c(OC)cc4[C@@H]2C3=O)O1 [ROTENONE] | DILI positive (test set)
31 | OC[C@@H](O)[C@@H](O)[C@H](O)[C@@H](O)CO [SORBITOL] | DILI negative (training set)
32 | CC(=O)S[C@@H]1CC2=CC(=O)CC[C@]2(C)[C@H]2CC[C@@]3(C)[C@@H](CC[C@@]34CCC(=O)O4)[C@H]12 [SPIRONOLACTONE] | DILI positive (training set)
33 | Cc1cn([C@H]2C=C[C@@H](CO)O2)c(=O)[nH]c1=O [STAVUDINE] | DILI positive (training set)
34 | CN(N=O)C(=O)N[C@@H](C=O)[C@@H](O)[C@H](O)[C@H](O)CO [STREPTOZOCIN] | DILI negative (test set)
35 | CN1C(C(=O)Nc2nccs2)=C(O)c2ccccc2S1(=O)=O [SUDOXICAM] | DILI positive (test set)
36 | Clc1ccc(CSC(Cn2ccnc2)c2ccc(Cl)cc2Cl)cc1.O=[N+]([O-])O (stereo not drawn) [SULCONAZOLE NITRATE] | DILI negative (test set)
37 | Nc1ccc(S(=O)(=O)NC(=O)c2ccccc2)cc1 [SULFABENZAMIDE] | DILI negative (test set)
38 | Cc1nnc(NS(=O)(=O)c2ccc(N)cc2)s1 [SULFAMETHIZOLE] | DILI positive (test set)
39 | O=C(O)c1cc(/N=N/c2ccc(S(=O)(=O)Nc3ccccn3)cc2)ccc1O [SULFASALAZINE] | DILI positive (training set)
40 | O=C1C(CC[S+]([O-])c2ccccc2)C(=O)N(c2ccccc2)N1c1ccccc1 (stereo not drawn) [SULFINPYRAZONE] | DILI positive (test set)
41 | O=C1OC(c2ccc(O)c(S(=O)(=O)O)c2)(c2ccc(O)c(S(=O)(=O)O)c2)c2c(Br)c(Br)c(Br)c(Br)c21 [SULFOBROMOPHTHALEIN] | DILI positive (test set)
42 | Cc1nc(C)c2c(n1)N(Cc1ccc(-c3ccccc3-c3nnn[nH]3)cc1)C(=O)CC2 [TASOSARTAN] | DILI positive (test set)
43 | Cc1scc2c1N(C(=O)CN1CCN(C)CC1)c1ccccc1NC2=O [TELENZEPINE] | DILI negative (test set)
44 | CC1CN(c2cc3c(cc2F)c(=O)c(C(=O)O)cn3-c2ccc(F)cc2F)CCN1 (stereo not drawn) [TEMAFLOXACIN] | DILI positive (test set)
45 | Cn1nnc2c(C(N)=O)ncn2c1=O [TEMOZOLOMIDE] | DILI negative (training set)
46 | CC(C)(C)c1ccc(C(O)CCCN2CCC(C(O)(c3ccccc3)c3ccccc3)CC2)cc1 (stereo not drawn) [TERFENADINE] | DILI negative (training set)
47 | CCCCNc1ccc(C(=O)OCCN(C)C)cc1.Cl [TETRACAINE HYDROCHLORIDE] | DILI negative (training set)
48 | CN(C)[C@@H]1C(O)=C(C(N)=O)C(=O)[C@@]2(O)C(O)=C3C(=O)c4c(O)cccc4[C@@](C)(O)[C@H]3C[C@@H]12 [TETRACYCLINE] | DILI positive (training set)
49 | Cn1c(=O)c2[nH]cnc2n(C)c1=O.O [THEOPHYLLINE] | DILI negative (test set)
50 | CC(=N)S [THIOACETAMIDE] | DILI positive (training set)
51 | CN1c2ccccc2C(NCCCCCCC(=O)O)c2ccc(Cl)cc2S1(=O)=O (stereo not drawn) [TIANEPTINE] | DILI positive (training set)

same assay, conditions: Liver

Row | Compound | Hepatotoxicity
52 | CC(C)c1cccc(C(C)C)c1O [PROPOFOL] | DILI negative (test set)
53 | Cc1ncc(CO)c(CO)c1O [PYRIDOXINE] | DILI negative (training set)
54 | CO[C@H]1/C=C/O[C@@]2(C)Oc3c(C)c(O)c4c(c3C2=O)C2=NC3(CCN(CC(C)C)CC3)NC2=C(NC(=O)/C(C)=C\C=C\[C@H](C)[C@H](O)[C@@H](C)[C@@H](O)[C@@H](C)[C@H](OC(C)=O)[C@@H]1C)C4=O [RIFABUTIN] | DILI positive (test set)
55 | CC(C)(C)NC(=O)[C@@H]1C[C@@H]2CCCC[C@@H]2CN1C[C@@H](O)[C@H](Cc1ccccc1)NC(=O)[C@H](CC(N)=O)NC(=O)c1ccc2ccccc2n1.CS(=O)(=O)O [SAQUINAVIR MESYLATE] | DILI positive (test set)
56 | CN[C@H]1CC[C@@H](c2ccc(Cl)c(Cl)c2)c2ccccc21 [SERTRALINE] | DILI negative (training set)
57 | CN[C@@H]1[C@H](O[C@H]2[C@H](O[C@H]3[C@H](O)[C@@H](O)[C@H](N=C(N)N)[C@@H](O)[C@@H]3N=C(N)N)O[C@@H](C)[C@]2(O)C=O)O[C@@H](CO)[C@H](O)[C@H]1O.CN[C@@H]1[C@H](O[C@H]2[C@H](O[C@H]3[C@H](O)[C@@H](O)[C@H](N=C(N)N)[C@@H](O)[C@@H]3N=C(N)N)O[C@@H](C)[C@]2(O)C=O)O[C@@H](CO)[C@H](O)[C@H]1O.O=S(=O)(O)O.O=S(=O)(O)O.O=S(=O)(O)O [STREPTOMYCIN SULFATE] | DILI negative (training set)
58 | [H]/N=C(/N)N[C@H]1[C@H](O)[C@@H](O)[C@H](O[C@@H]2O[C@@H](C)[C@](O)(C=O)[C@H]2O[C@@H]2O[C@@H](CO)[C@H](O)[C@@H](O)[C@@H]2NC)[C@@H](N/C(N)=N\[H])[C@@H]1O [STREPTOMYCIN] | DILI negative (test set)
59 | Nc1ccc(S(N)(=O)=O)cc1 [SULFANILAMIDE] | DILI positive (test set)
60 | Nc1c2c(nc3ccccc13)CCCC2 [TACRINE] | DILI negative (training set)
61 | CC[C@H]1OC(=O)[C@H](C)C(=O)[C@H](C)[C@@H](O[C@@H]2O[C@H](C)C[C@H](N(C)C)[C@H]2O)[C@](C)(OC)C[C@@H](C)C(=O)[C@H](C)[C@H]2N(CCCCn3cnc(-c4cccnc4)c3)C(=O)O[C@]12C [TELITHROMYCIN] | DILI positive (test set)
62 | Cc1ncc(C[n+]2csc(CCO)c2C)c(N)n1 [THIAMINE ION] | DILI negative (test set)
63 | Clc1ccccc1CN1CCc2sccc2C1 [TICLOPIDINE] | DILI positive (training set)
